Legend:
[1] = system: Mytilus galloprovincialis plantigrades; assay: Anti-settlement bioassay with mussel plantigrades (effectiveness and mortality); assay type: in vivo; conditions: 250 and 50 μM, 15 h; versus negative control, p < 0.05 Dunnett
Procedure: M. galloprovincialis juvenile (0.5 cm shell length approximately) aggregates were collected from mussel beds from the intertidal rocky shore, during low neap tides at Memória beach, Matosinhos, Portugal (41°13′59″N; 8°43′28″W), and immediately transported to the laboratory. M. galloprovincialis plantigrade post-larvae (0.5–2 mm) were screened among the small mussel aggregates in a binocular magnifier (Olympus SZX2-ILLT), gently washed with filtered seawater to remove organic debris and sand particles and isolated in a petri dish with filtered seawater immediately before the bioassays.
For the screening bioassay, competent M. galloprovincialis plantigrades (showing exploring behavior, ie, moving their foot searching for the appropriate substrate to settle) were selected and exposed to the series of sulfated compounds 1–13 at two concentrations (250 and 50 μM) in 24-well microplates for 15 h, at 18 ± 1 °C, in the darkness. Bioassays time frame was selected based on preliminary bioassays to ensure that the response measured is reflecting the compounds effect. Test solutions were prepared in filtered seawater (previously treated by UV light, and carbon filters and mechanically filtered with […] filter before use) and obtained by dilution of the compounds stock solutions (50 mM) in ultra-pure water. Four well replicates were used per condition with five plantigrades per well and 2.5 mL of test solution. A negative control, with ultra-pure water was included in all bioassays, as well as a positive control with 5 μM CuSO4 (a potent AF agent). At the end of the exposure period, the anti-settlement activity was determined by the presence/absence of byssal threads produced by each individual efficiently attached for all the conditions tested.
(§1) Data from the anti-settlement and antibacterial screenings were analyzed using a one-way analysis of variance (ANOVA) followed by a Dunnett test against the control (p < 0.05). Semi-maximum response concentration that inhibited 50% larval settlement (EC50), semi-maximum response concentration that inhibited 20% bacterial growth (EC20) and the median lethal dose (LC50) for each bioactive compound were assessed using Probit regression analysis. Pearson Goodness-of-fit (Chi-Square) significance was considered at p < 0.05 for all analyses, and 95% lower and upper confidence limits [95% LCL; UCL] were presented. Therapeutic ratio (LC50/EC50) was used to evaluate the effectiveness vs toxicity of compounds[31][53][54]. The software IBM SPSS Statistics 21 was used for statistical analysis.

[2] = system: Vibrio harveyi CECT 525; assay: Antibacterial growth inhibition, Vibrio harveyi; assay type: cell-based; conditions: V. harveyi
Procedure: (§2) Antibacterial activities were evaluated against four strains of marine biofilm-forming bacteria Cobetia marina CECT 4278, Vibrio harveyi CECT 525, Halomonas aquamarina CECT 5000, and Pseudoalteromonas atlantica CECT 570, all from Spanish Type Culture Collection (CECT). The bacteria were inoculated and incubated for 24 h at 26 °C in marine broth (Difco) at an initial density of 0.1 (OD600) in 96 well flat-bottom microtiter plates. Sulfated compounds stock solutions were prepared in ultra-pure water. […] Bacterial growth inhibition in the presence of the test compounds was measured in quadriplicate by reading of optical density at 600 nm using a microplate reader (Biotek Synergy HT, Vermont, USA). Marine broth with ultra-pure water and penicilin-streptomycin-neomycin stabilized solution were used as negative (B) and positive (C) controls, respectively.
(§3) For the determination of maximal inhibitory concentrations (IC) a serial dilution of the stock solution was used to obtain final concentrations from 100 μM to 0.75 μM, the same range applied in antifouling bioassays plus one lower concentration, and the same procedure was applied.
Data from the anti-settlement and antibacterial screenings were analyzed using a one-way analysis of variance (ANOVA) followed by a Dunnett test against the control (p < 0.05). […]

[3] = system: Halomonas aquamarina CECT 5000; assay: Antibacterial growth inhibition, Halomonas aquamarina; assay type: cell-based; conditions: H. aquamarina
Procedure: as §2, §3, §1

SMILES: O=c1c(O[C@@H]2O[C@H](COS(=O)(=O)O)[C@@H](OS(=O)(=O)O)[C@H](OS(=O)(=O)O)[C@H]2OS(=O)(=O)O)c(-c2ccccc2)oc2cc(O[C@@H]3O[C@H](COS(=O)(=O)O)[C@@H](OS(=O)(=O)O)[C@H](OS(=O)(=O)O)[C@H]3OS(=O)(=O)O)ccc12 [Compound 4, 3,7-di(β-D-glucopyranosyl)flavone persulfate]
- Anti-settlement activity in screening (result in words) [1]: did not show notable activity
- EC20, minimum concentration that inhibited 20% of bacterial growth [2]: >100 µM
- Bacterial growth inhibition in screening ([3]; 12.5 μM, 24 h, 26 °C): significant inhibitory activity
- Bacterial growth inhibition at all the concentrations tested ([3]; 0.75–100 μM): less than 30%
- inhibition at 12.5 µM ([3]; Vreelandella aquamarina, CECT5000, 12.5 μM): 15.3%
- inhibition at 100 µM ([3]; Vreelandella aquamarina, CECT5000, 100 μM): 26.5%

Source: PMC5304334, “Antifouling potential of Nature-inspired sulfated compounds” (Scientific Reports, 2017)
